Data from ChEMBL document CHEMBL2021794, “Synthesis, σ₁, σ₂-receptors binding affinity and antiproliferative action of new C1-substituted adamantanes” (Bioorg Med Chem, 2012).
Activity calls are given as the source filed them. No cut-off for these calls is given here.

Tests used:
[1] = Growth inhibition of human MSC cells after 48 hrs by SRB assay; type: cell-based
BXPC-3 [2] = experiment: Cell cycle arrest in human BxPC3 cells assessed as accumulation at >G2 phase at 5 uM after 24 hrs by propidium iodide staining based flow cytometry (reference value: 6%); type: functional
IGROV-1 [3] = experiment: Cell cycle arrest in human IGROV1 cells assessed as accumulation at >G2 phase at 0.5 uM after 24 hrs by propidium iodide staining based flow cytometry (reference value: 21%); type: functional
DU-145 = experiment: Cytotoxicity against human DU145 cells after 48 hrs by trypan blue assay; type: functional, cell-based
Mus musculus [4] = experiment: Toxicity in SCID mouse assessed as weight loss at 40 mg/kg, ip after 3 to 4 weeks chronic treatment; type: organism-based; design: dose 40 mg/kg, route intraperitoneal; conditions: in vivo
PC-3 [5] = experiment: Induction of apoptosis in human PC3 cells assessed as healthy cells at 50 uM after 24 hrs by Annexin V/7-AAD staining based flow cytometry (reference value: 92%); type: functional
BXPC-3 [6] = experiment: Cell cycle arrest in human BxPC3 cells assessed as accumulation at G2 phase at 50 uM after 24 hrs by propidium iodide staining based flow cytometry (reference value: 12%); type: functional
BXPC-3 [7] = experiment: Induction of apoptosis in human BxPC3 cells assessed as healthy cells at 15 uM after 24 hrs by Annexin V/7-AAD staining based flow cytometry (reference value: 77%); type: functional
PC-3 [8] = experiment: Cell cycle arrest in human PC3 cells assessed as accumulation at < G1 phase at 50 uM after 24 hrs by propidium iodide staining based flow cytometry (reference value: 4%); type: functional
BXPC-3 [9] = experiment: Antitumor activity against human BxPC3 cells xenografted in SCID mouse assessed as reduction in tumor volume at 40 mg/kg, ip for 5 consecutive days and 2 administrations for one more week; type: functional; conditions: BXPC-3, ip, route intraperitoneal
[10] = (§1) Growth inhibition of HUVEC cells after 48 hrs by SRB assay; type: cell-based; conditions: human, HUVEC cells
HUVEC = experiment: as §1; type: cell-based; conditions: human, huvec, 48 h
PC-3 [11] = experiment: Cell cycle arrest in human PC3 cells assessed as accumulation at G1 phase at 5 uM after 24 hrs by propidium iodide staining based flow cytometry (reference value: 36%); type: functional
BXPC-3 [12] = experiment: Induction of apoptosis in human BxPC3 cells assessed as healthy cells at 50 uM after 24 hrs by Annexin V/7-AAD staining based flow cytometry (reference value: 77%); type: functional
IGROV-1 [13] = experiment: Induction of apoptosis in human IGROV1 cells assessed as late apoptotic cells at 5 uM after 24 hrs by Annexin V/7-AAD staining based flow cytometry (reference value: 4%); type: functional
BXPC-3 [14] = experiment: Induction of apoptosis in human BxPC3 cells assessed as healthy cells at 0.5 uM after 24 hrs by Annexin V/7-AAD staining based flow cytometry (reference value: 77%); type: functional
HCT-15 = experiment: Cytotoxicity against human HCT15 cells after 48 hrs by trypan blue assay; type: functional, cell-based
BXPC-3 [15] = experiment: Cell cycle arrest in human BxPC3 cells assessed as accumulation at S phase at 0.5 uM after 24 hrs by propidium iodide staining based flow cytometry (reference value: 33%); type: functional
BXPC-3 [16] = experiment: Cell cycle arrest in human BxPC3 cells assessed as accumulation at S phase at 15 uM after 24 hrs by propidium iodide staining based flow cytometry (reference value: 33%); type: functional
IGROV-1 [17] = experiment: Cytotoxicity against human IGROV1 cells at 50 uM; type: functional, cell-based
Mus musculus [18] = experiment: Analgesic activity against formalin-induced neuropathic pain in paclitaxel treated CD1 mouse assessed as decrease of time spent in paw licking at 100 mg/kg, po administered 14 days post paclitaxel dosing and 1 hr prior formalin challenge measured for 0 to 5 mins post formalin challenge; type: functional, organism-based; design: dose 100 mg/kg
BXPC-3 [19] = experiment: Antitumor activity against human BxPC3 cells xenografted in SCID mouse assessed as tumor weight at 40 mg/kg, ip for 5 consecutive days and 2 administrations for one more week (reference value: 723 +/- 45 mg); type: functional; conditions: route intraperitoneal
PC-3 [20] = experiment: Induction of apoptosis in human PC3 cells assessed as cleaved caspase-3 containing cells at 0.5 uM after 24 hrs by FACS analysis (reference value: 3%); type: functional
BXPC-3 [21] = experiment: Cell cycle arrest in human BxPC3 cells assessed as accumulation at G1 phase at 0.5 uM after 24 hrs by propidium iodide staining based flow cytometry (reference value: 41%); type: functional
PC-3 [22] = experiment: Induction of apoptosis in human PC3 cells assessed as cleaved caspase-3 containing cells at 5 uM after 24 hrs by FACS analysis (reference value: 3%); type: functional
BXPC-3 [23] = experiment: Cell cycle arrest in human BxPC3 cells assessed as accumulation at G2 phase at 5 uM after 24 hrs by propidium iodide staining based flow cytometry (reference value: 12%); type: functional
BXPC-3 [24] = experiment: Cell cycle arrest in human BxPC3 cells assessed as accumulation at G1 phase at 15 uM after 24 hrs by propidium iodide staining based flow cytometry (reference value: 41%); type: functional
SF-295 = experiment: Growth inhibition of human SF295 cells after 48 hrs by SRB assay; type: functional; conditions: SF-295, 48 h
IGROV-1 [25] = experiment: Cytotoxicity against human IGROV1 cells after 48 hrs by trypan blue assay; type: functional, cell-based
BXPC-3 [26] = experiment: Induction of apoptosis in human BxPC3 cells assessed as early apoptotic cells at 50 uM after 24 hrs by Annexin V/7-AAD staining based flow cytometry (reference value: 11%); type: functional
HCT-116 = experiment: Growth inhibition of human HCT116 cells after 48 hrs by SRB assay; type: functional; conditions: HCT-116, 48 h
PC-3 [27] = experiment: Induction of apoptosis in human PC3 cells assessed as late apoptotic cells at 5 uM after 24 hrs by Annexin V/7-AAD staining based flow cytometry (reference value: 2%); type: functional
PC-3 [28] = experiment: Induction of apoptosis in human PC3 cells assessed as late apoptotic cells at 15 uM after 24 hrs by Annexin V/7-AAD staining based flow cytometry (reference value: 2%); type: functional
PC-3 [29] = experiment: Induction of apoptosis in human PC3 cells assessed as late apoptotic cells at 0.5 uM after 24 hrs by Annexin V/7-AAD staining based flow cytometry (reference value: 2%); type: functional
IGROV-1 [30] = experiment: Cell cycle arrest in human IGROV1 cells assessed as accumulation at G2 phase at 5 uM after 24 hrs by propidium iodide staining based flow cytometry (reference value: 19%); type: functional
PC-3 [31] = experiment: Growth inhibition of human PC3 cells after 48 hrs by SRB assay; type: functional; conditions: PC-3, 48 h
IGROV-1 [32] = experiment: Cell cycle arrest in human IGROV1 cells assessed as accumulation at < G1 phase at 15 uM after 24 hrs by propidium iodide staining based flow cytometry (reference value: 4%); type: functional
PC-3 [33] = experiment: Induction of apoptosis in human PC3 cells assessed as early apoptotic cells at 5 uM after 24 hrs by Annexin V/7-AAD staining based flow cytometry (reference value: 5%); type: functional
IGROV-1 [34] = experiment: Induction of apoptosis in human IGROV1 cells assessed as total apoptotic death cells at 0.5 uM after 24 hrs by Annexin V/7-AAD staining based flow cytometry (reference value: 13%); type: functional
[35] = read-out: LC50 (the source's name)

## CN1CCN(c2ccc(C(c3ccccc3)C34CC5CC(CC(C5)C3)C4)cc2)CC1 (stereo not drawn)
[1]; MSC cells
  GI50 at 48 h: 16.9 µM
[1]; msc, 48 h
  LC50: 91.56 µM
  TGI: 54.21 µM
BXPC-3 [2]
  Activity: 8%
IGROV-1 [3]
  Activity: 20%
DU-145
  Activity: Active
Mus musculus [4]
  Activity: Non-toxic
PC-3 [5]
  Activity: 61%
BXPC-3 [6]
  Activity: 13%
BXPC-3 [7]
  Activity: 60%
PC-3 [8]
  Activity: 10%
BXPC-3 [9]
  inhibition in vivo at 40 mg/kg: 37.8%
[10]
  GI50 at 48 h: 4.52 µM
HUVEC
  LC50: 10.34 µM
  TGI: 7.43 µM
PC-3 [11]
  Activity: 34%
BXPC-3 [12]
  Activity: 26%
IGROV-1 [13]
  Activity: 3%
BXPC-3 [14]
  Activity: 84%
HCT-15
  Activity: Active
BXPC-3 [15]
  Activity: 34%
BXPC-3 [16]
  Activity: 19%
IGROV-1 [17]
  Activity: Active
Mus musculus [18]
  Activity: Active
BXPC-3 [19]
  Activity: 690 mg
PC-3 [20]
  Activity: 1%
BXPC-3 [21]
  Activity: 37%
PC-3 [22]
  Activity: 2%
BXPC-3 [23]
  Activity: 12%
BXPC-3 [24]
  Activity: 51%
SF-295
  GI50: 11 µM
  TGI: 48.1 µM
SF-295; [35]
  CC50: 85.2 µM
IGROV-1 [25]
  Activity: Active
BXPC-3 [26]
  Activity: 15%
HCT-116
  GI50: 4.92 µM
  TGI: 9.37 µM
HCT-116; [35]
  CC50: 100 µM
PC-3 [27]
  Activity: 2%
PC-3 [28]
  Activity: 3%
PC-3 [29]
  Activity: 1%
IGROV-1 [30]
  Activity: 19%
PC-3 [31]
  GI50: 6.8 µM
  TGI: 32.9 µM
PC-3 [31]; [35]
  CC50: 100 µM
IGROV-1 [32]
  Activity: 11%
PC-3 [33]
  Activity: 5%
IGROV-1 [34]
  Activity: 10%
